Measurements published in PMC6290777, “Inhalation of the prodrug PI3K inhibitor CL27c improves lung function in asthma and fibrosis” (Nature Communications, 2018).
Values joined by “and” are separate entries in the source; they are usually repeats but may differ in a detail not shown here. Identical values can stand only once.

Biological target: T1, PI3Kα (Homo sapiens, UniProt P42336)
T1 construct: purchased Nanosyn Biology, Inc., Santa Clara, CA, USA
Assay: Kinome profiling assay (Nanosyn 250-kinase panel)
Format: biochemical
Protocol: Supplementary Figure 2: Kinase selectivity of CL27e
Kinase selectivity of the CL27c active metabolite, CL27e, was evaluated at 0.02 µM and 0.2 µM using the Nanosyn 250-kinase panel. Red color indicates selectivity for PI3Kα, on which CL27e […]
Results are expressed as mean percentage inhibition for each
(1 picture or pasted object on this page, not shown here)
Human lung fibroblast cell culture
Two separate human lung fibroblast cell lines isolated from IPF patients were used: LL97a derived from a person (ATCC, Manassas, USA) and DHLF-IPF (#CC-7231, Lonza, Switzerland). Control cell lines were CCD-16Lu, obtained from a person that died of astrocytoma –a disease unrelated to IPF - (ATCC) and NHLF (#CC-2512; Lonza). […]
Caliper based assay, the reaction was terminated by addition of EDTA buffer. Substrate and product were separated and quantified electrophoretically using the microfluidic-based and the assay plate was read on Caliper LabChip 3000 Drug Discovery System from Caliper Life Sciences (Walthan, MA, USA). ADP Glo was another method of detection used for some kinase assays where data was obtained by quantifying the intensity of luminescence. For ADP Glo based assay, the reaction was terminated by applying the Promega ADP Glo Kinase Assay kit and the assay plate was read on a LJL Biosystems Analyst HT. […]

T1 sequence (P42336 whole entry, species assumed): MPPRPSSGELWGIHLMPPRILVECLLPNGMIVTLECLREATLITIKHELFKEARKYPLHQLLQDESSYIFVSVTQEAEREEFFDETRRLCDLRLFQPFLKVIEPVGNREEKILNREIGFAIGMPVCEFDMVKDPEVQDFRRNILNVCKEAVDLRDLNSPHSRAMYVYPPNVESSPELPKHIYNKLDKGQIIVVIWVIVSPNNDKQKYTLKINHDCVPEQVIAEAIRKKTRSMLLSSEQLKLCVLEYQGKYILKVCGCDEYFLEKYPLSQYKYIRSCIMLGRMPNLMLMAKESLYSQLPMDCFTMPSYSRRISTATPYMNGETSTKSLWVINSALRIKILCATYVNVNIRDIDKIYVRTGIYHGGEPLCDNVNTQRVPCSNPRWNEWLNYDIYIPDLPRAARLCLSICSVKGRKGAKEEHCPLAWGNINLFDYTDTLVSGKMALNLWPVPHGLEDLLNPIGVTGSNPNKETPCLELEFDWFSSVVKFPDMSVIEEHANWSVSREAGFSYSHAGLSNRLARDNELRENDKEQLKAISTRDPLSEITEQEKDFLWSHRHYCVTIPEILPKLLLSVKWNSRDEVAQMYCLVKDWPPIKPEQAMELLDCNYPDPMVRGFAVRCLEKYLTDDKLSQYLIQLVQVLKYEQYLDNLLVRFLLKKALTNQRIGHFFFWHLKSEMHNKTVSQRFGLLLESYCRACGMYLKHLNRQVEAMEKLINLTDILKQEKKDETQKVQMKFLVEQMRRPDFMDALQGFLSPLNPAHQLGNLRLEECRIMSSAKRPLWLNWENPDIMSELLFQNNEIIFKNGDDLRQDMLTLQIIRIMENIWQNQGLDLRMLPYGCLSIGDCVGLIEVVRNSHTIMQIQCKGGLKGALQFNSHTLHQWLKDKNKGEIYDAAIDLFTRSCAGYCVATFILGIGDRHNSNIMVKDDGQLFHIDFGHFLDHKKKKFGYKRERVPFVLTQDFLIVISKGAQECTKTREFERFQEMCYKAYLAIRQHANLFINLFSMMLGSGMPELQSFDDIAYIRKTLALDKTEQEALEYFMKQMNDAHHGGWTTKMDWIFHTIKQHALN
T1 sequence (P27986 whole entry partner, species assumed): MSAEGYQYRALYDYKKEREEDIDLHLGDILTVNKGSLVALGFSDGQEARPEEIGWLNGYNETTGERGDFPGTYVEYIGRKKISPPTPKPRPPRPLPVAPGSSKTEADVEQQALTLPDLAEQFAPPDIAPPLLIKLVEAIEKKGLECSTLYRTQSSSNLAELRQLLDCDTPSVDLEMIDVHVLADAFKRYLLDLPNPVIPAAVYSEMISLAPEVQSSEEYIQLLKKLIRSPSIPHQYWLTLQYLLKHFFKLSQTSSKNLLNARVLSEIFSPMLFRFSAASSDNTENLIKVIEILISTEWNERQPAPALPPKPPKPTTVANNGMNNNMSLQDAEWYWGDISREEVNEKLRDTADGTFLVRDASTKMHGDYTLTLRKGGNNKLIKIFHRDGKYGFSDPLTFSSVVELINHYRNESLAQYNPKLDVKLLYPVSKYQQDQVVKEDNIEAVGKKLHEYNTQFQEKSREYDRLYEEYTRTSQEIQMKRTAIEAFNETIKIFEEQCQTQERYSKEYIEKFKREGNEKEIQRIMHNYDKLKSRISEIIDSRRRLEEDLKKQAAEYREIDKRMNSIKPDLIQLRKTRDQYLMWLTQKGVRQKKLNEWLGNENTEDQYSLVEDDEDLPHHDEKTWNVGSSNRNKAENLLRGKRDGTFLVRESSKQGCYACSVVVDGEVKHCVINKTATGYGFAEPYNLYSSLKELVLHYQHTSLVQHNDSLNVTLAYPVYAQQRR

O=C(O)c1cccc(Cn2cc(-c3cccc4c(=O)cc(N5CCOCC5)[nH]c34)nn2)c1 [CL27e]
inhibition of PI3Kα (high concentration (0.2 µM), 0.2 µM): > 80% and 81%
inhibition of PI3Kα (low concentration (0.02 µM)): 23%
